# Laboratory results reported in PubChem BioAssay (NCI).
#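 Test compounds were applied to cells in 96-well plates for 48 hours at 5 doses. TGI denotes the concentration required for complete inhibition of growth.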
# Columns and labels:
# Assay in all cases: inhibition of tumour cell growth, NCI panel, 48 h
# A498 renal = tested on: A498 renal
# ACHN renal = tested on: ACHN renal
# COLO 205 colon = tested on: COLO 205 colon
# HOP-62 NSCLC = tested on: HOP-62 NSCLC
# LOX IMVI melanoma = tested on: LOX IMVI melanoma
# M14 melanoma = tested on: M14 melanoma
# MALME-3M melanoma = tested on: MALME-3M melanoma
# MCF7 breast = tested on: MCF7 breast
# MDA-N = tested on: MDA-N
# NCI-H226 lung = tested on: NCI-H226 lung
# NCI-H460 lung = tested on: NCI-H460 lung
# OVCAR-5 ovarian = tested on: OVCAR-5 ovarian
# PC-3 prostate = tested on: PC-3 prostate
# SK-MEL-28 melanoma = tested on: SK-MEL-28 melanoma
# SK-OV-3 ovarian = tested on: SK-OV-3 ovarian
# SN12C renal = tested on: SN12C renal
# TK-10 renal = tested on: TK-10 renal
# U251 CNS = tested on: U251 CNS
# UACC-257 melanoma = tested on: UACC-257 melanoma
# SW-620 colon = tested on: SW-620 colon
SMILES,TGI (A498 renal),TGI (ACHN renal),TGI (COLO 205 colon),TGI (HOP-62 NSCLC),TGI (LOX IMVI melanoma),TGI (M14 melanoma),TGI (MALME-3M melanoma),TGI (MCF7 breast),TGI (MDA-N),TGI (NCI-H226 lung),TGI (NCI-H460 lung),TGI (OVCAR-5 ovarian),TGI (PC-3 prostate),TGI (SK-MEL-28 melanoma),TGI (SK-OV-3 ovarian),TGI (SN12C renal),TGI (TK-10 renal),TGI (U251 CNS),TGI (UACC-257 melanoma),TGI (SW-620 colon)
COC(=O)c1c(-c2ccccc2)c2sc3ccccc3n2c1N,91.1 µM,> 100 µM,97 µM,> 100 µM,43.2 µM,> 100 µM,68.1 µM,> 100 µM,> 100 µM,> 100 µM,> 100 µM,> 100 µM,> 100 µM,> 100 µM,> 100 µM,96.1 µM,> 100 µM,> 100 µM,> 100 µM,
O=C(/C=C(\O)c1ccccc1)c1cc(-c2ccccc2)n(-c2ccccc2)n1,> 100 µM,23.9 µM,37.4 µM,23.9 µM,> 100 µM,55.7 µM,45.5 µM,> 100 µM,> 100 µM,25.2 µM,98.4 µM,> 100 µM,> 100 µM,,> 100 µM,39.9 µM,> 100 µM,62.6 µM,> 100 µM,> 100 µM
COc1cccc(-c2nc(-c3cnccn3)n(COCCO)n2)c1,,,> 100 µM,> 100 µM,> 100 µM,> 100 µM,,> 100 µM,> 100 µM,,> 100 µM,> 100 µM,> 100 µM,> 100 µM,> 100 µM,> 100 µM,> 100 µM,> 100 µM,> 100 µM,> 100 µM
O=C1Oc2cc3c(c4cccc1c24)O[C@H](c1ccccc1)[C@@H](c1ccccc1)[C@@H]3c1ccc(Cl)cc1,,> 100 µM,> 100 µM,42.8 µM,> 100 µM,> 100 µM,> 100 µM,> 100 µM,> 100 µM,> 100 µM,> 100 µM,> 100 µM,> 100 µM,> 100 µM,> 100 µM,> 100 µM,> 100 µM,50.1 µM,> 100 µM,> 100 µM
CCC(=O)C(C(C)/C=C/CCSc1ccccc1)C(O)CCCCCC(=O)OC (configuration not stated),,> 100 µM,> 100 µM,> 100 µM,> 100 µM,> 100 µM,> 100 µM,> 100 µM,> 100 µM,> 100 µM,> 100 µM,> 100 µM,> 100 µM,> 100 µM,> 100 µM,> 100 µM,> 100 µM,> 100 µM,> 100 µM,> 100 µM
COc1ccc(N=[N+]([O-])c2ccc(OC)cc2)cc1,> 100 µM,> 100 µM,> 100 µM,> 100 µM,,> 100 µM,> 100 µM,> 100 µM,> 100 µM,,> 100 µM,> 100 µM,> 100 µM,> 100 µM,> 100 µM,,> 100 µM,> 100 µM,> 100 µM,
CCCC[C@H]1CCN2C[C@@H](O)[C@@H](O)[C@H]2[C@@H]1O,> 100 µM,> 100 µM,> 100 µM,,> 100 µM,> 100 µM,> 100 µM,> 100 µM,> 100 µM,> 100 µM,> 100 µM,> 100 µM,> 100 µM,> 100 µM,> 100 µM,> 100 µM,> 100 µM,> 100 µM,> 100 µM,> 100 µM
